Measured values published in patent US12419874B2, “GLP-1R agonist compound and use thereof” (Chongqing Pharmaceutical Research Institute Co., Ltd., priority 2024, dated 2025).
pEC50: −log10 of the molar value.

Target: GLP-1R (Homo sapiens, UniProt P43220)
Assay: GLP-1R agonistic activity by One-Lite luciferase assay in HEK293-GLP-1R-luc cells (Example 59)
Type: cell-based
Conditions: 6 h incubation, read-out: cAMP EC50
Procedure: The agonistic activities of the compounds of the present disclosure on GLP-1R were evaluated by detecting the generation of cAMP.
• (1) Cell line: HEK293-GLP-1R-luc Stable Cell Line (Cobioer, CBP71117); • (2) Culture medium: DMEM+10% FBS (Gibco); • (3) Kit: One-Lite™ kit Luciferase Assay System (Vazyme). 2. Experimental Procedures • (1) HEK293-GLP1R cells were inoculated in a 96-well plate at a density of 30000 cells per well; • (2) 10× working solution of each compound was formulated; • (3) 10 μL of 10× working solution of each compound was added to corresponding well and incubated at 37° C. for 6 h; • (4) 100 μL of One-Lite Luciferase Assay Substrate formulated using One-Lite Luciferase Assay Buffer was added to each well; • (5) The plate was incubated at room temperature for 3 min; • (6) The plate was read by a multimode microplate reader to detect chemiluminescence. 3. Data Analysis • (1) % Activity was calculated by the following formula: % Activity=100−(Signalcmpd−SignalAve-PC)/(SignalAve-VC−SignalAve-PC)×100 • (2) The dose-response curve was plotted to calculate EC50: Y=Bottom+(Top−Bottom)/(1+10^(Log EC50−X)*HillSlope)) • X: log of agonist concentration; Y: Activity. 4. Experimental Results

Sequence of GLP-1R (P43220 24-463): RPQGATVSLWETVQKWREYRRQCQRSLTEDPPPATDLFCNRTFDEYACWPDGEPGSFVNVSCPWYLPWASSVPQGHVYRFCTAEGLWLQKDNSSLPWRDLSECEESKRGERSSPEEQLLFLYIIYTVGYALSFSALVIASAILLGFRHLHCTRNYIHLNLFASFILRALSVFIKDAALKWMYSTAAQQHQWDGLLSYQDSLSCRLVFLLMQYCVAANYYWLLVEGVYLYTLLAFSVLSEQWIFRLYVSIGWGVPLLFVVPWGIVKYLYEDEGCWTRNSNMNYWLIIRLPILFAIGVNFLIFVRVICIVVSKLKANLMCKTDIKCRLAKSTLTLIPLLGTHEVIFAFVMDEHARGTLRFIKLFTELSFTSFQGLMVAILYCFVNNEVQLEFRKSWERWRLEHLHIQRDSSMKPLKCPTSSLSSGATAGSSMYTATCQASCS

| pEC50 | SMILES |
| --- | --- |
| ≥ 7.70 | Cc1cc(-n2nc3c(c2-n2ccn(-c4ccc5c(ccn5C)c4F)c2=O)[C@H](C)N(C(=O)c2cc4cc([C@H]5CCOC(C)(C)C5)ccc4n2[C@@]2(c4noc(=O)[nH]4)C[C@@H]2C)CC32CCCNC2)cc(C)c1F (single isomer, unassigned) [Compound 51-A] |
| ≥ 7.70 | Cc1cc(-n2nc3c(c2-n2ccn(-c4ccc5c(ccn5C)c4F)c2=O)[C@H](C)N(C(=O)c2cc4cc([C@H]5CCOC(C)(C)C5)ccc4n2[C@@]2(c4noc(=O)[nH]4)C[C@@H]2C)CC32CCCNC2)cc(C)c1F (single isomer, unassigned) [Compound 51-B] |
| ≥ 7.70 | Cc1cc(-n2nc3c(c2-n2ccn(-c4ccc5c(cnn5C)c4F)c2=O)[C@H](C)N(C(=O)c2cc4cc([C@H]5CCOC(C)(C)C5)ccc4n2[C@@]2(c4noc(=O)[nH]4)C[C@@H]2C)CC32CCCN(C)C2)cc(C)c1F (single isomer, unassigned) [Compound 53-A] |
| < 6.52 | Cc1cc(-n2nc3c(c2-n2ccn(-c4ccc5c(cnn5C)c4F)c2=O)[C@H](C)N(C(=O)c2cc4cc(C5CCOC(C)(C)C5)ccn4c2C2(c4noc(=O)[nH]4)CC2)CC32CC2)cc(C)c1F (single isomer, unassigned) [Compound 185-A] |
| 7.00 to 7.70 | Cc1cc(-n2nc3c(c2-n2ccn(-c4ccc5c(cnn5C)c4F)c2=O)[C@H](C)N(C(=O)c2cc4cc(C5CCOC(C)(C)C5)ccn4c2C2(c4noc(=O)[nH]4)CC2)CC32CC2)cc(C)c1F (single isomer, unassigned) [Compound 185-B] |
| < 6.52 | C[C@H]1c2c(nn(-c3ccc(F)c(C4CC4)c3)c2-n2ccn(-c3ccc4c(cnn4C)c3F)c2=O)C2(CC2)CN1C(=O)c1cc2cc(C3CCOC(C)(C)C3)ccn2c1C1(c2noc(=O)[nH]2)CC1 (single isomer, unassigned) [Compound 186-A] |
| 7.00 to 7.70 | C[C@H]1c2c(nn(-c3ccc(F)c(C4CC4)c3)c2-n2ccn(-c3ccc4c(cnn4C)c3F)c2=O)C2(CC2)CN1C(=O)c1cc2cc(C3CCOC(C)(C)C3)ccn2c1C1(c2noc(=O)[nH]2)CC1 (single isomer, unassigned) [Compound 186-B] |
| ≥ 7.70 | Cc1cc(-n2nc3c(c2-n2ccn(-c4ccc5c(cnn5C)c4F)c2=O)[C@H](C)N(C(=O)c2cc4cc([C@H]5CCOC(C)(C)C5)ccc4n2[C@@]2(c4noc(=O)[nH]4)C[C@@H]2C)CC32CNC2)cc(C)c1F [Compound 15] |
| ≥ 7.70 | Cc1cc(-n2nc3c(c2-n2ccn(-c4ccc5c(cnn5C)c4F)c2=O)[C@H](C)N(C(=O)c2cc4cc([C@H]5CCOC(C)(C)C5)ccc4n2[C@@]2(c4noc(=O)[nH]4)C[C@@H]2C)CC32COC2)cc(C)c1F [Compound 21] |
| ≥ 7.70 | Cc1cc(-n2nc3c(c2-n2ccn(-c4ccc5c(cnn5C)c4F)c2=O)[C@H](C)N(C(=O)c2cc4cc([C@H]5CCOC(C)(C)C5)ccc4n2[C@@]2(c4noc(=O)[nH]4)C[C@@H]2C)CC32CCC2)cc(C)c1F [Compound 23] |
| ≥ 7.70 | Cc1cc(-n2nc3c(c2-n2ccn(-c4ccc5c(cnn5C)c4F)c2=O)[C@H](C)N(C(=O)c2cc4cc([C@H]5CCOC(C)(C)C5)ccc4n2[C@@]2(c4noc(=O)[nH]4)C[C@@H]2C)CC32CCCC2)cc(C)c1F [Compound 25] |
| ≥ 7.70 | Cc1cc(-n2nc3c(c2-n2ccn(-c4ccc5c(cnn5C)c4F)c2=O)[C@H](C)N(C(=O)c2cc4cc([C@H]5CCOC(C)(C)C5)ccc4n2[C@@]2(c4noc(=O)[nH]4)C[C@@H]2C)CC32CCOC2)cc(C)c1F (some centres unmarked) [Compound 29] |
| ≥ 7.70 | Cc1cc(-n2nc3c(c2-n2ccn(-c4ccc5c(cnn5C)c4F)c2=O)[C@H](C)N(C(=O)c2cc4cc([C@H]5CCOC(C)(C)C5)ccc4n2[C@@]2(c4noc(=O)[nH]4)C[C@@H]2C)CC32CCCN2)cc(C)c1F (some centres unmarked) [Compound 31] |
| 7.00 to 7.70 | Cc1cc(-n2nc3c(c2-n2ccn(-c4ccc5c(cnn5C)c4F)c2=O)[C@H](C)N(C(=O)c2cc4cc([C@H]5CCOC(C)(C)C5)ccc4n2[C@@]2(c4noc(=O)[nH]4)C[C@@H]2C)CC32CCCCC2)cc(C)c1F [Compound 37] |
